Measurements taken from paper PMC6107088 (Inorganic chemistry, 2018).

Key:
[1] = molecular target: yeast iso-1 cytochrome c WT* (pseudo-wild-type), ferric (Saccharomyces cerevisiae, UniProt P00044, C108S/K78A); experiment: equilibrium titration, Soret absorbance at […] and […] nm, one-site fit; format: binding
[2] = molecular target: yeast iso-1 cytochrome c WT* (pseudo-wild-type), ferric (Saccharomyces cerevisiae, UniProt P00044, C108S/K78A/K79A/K85G/M86K); experiment: as above; format: binding
Lys80 = Lys80 (UniProt position 86, IPGTGKAFGGL); experiment: UV-vis; details: ferric protein; Lys80/His18-ligated haem converting to H2O/His-ligated haem; cited from earlier work

Sequence of yeast iso-1 cytochrome c WT* (pseudo-wild-type), ferric (Saccharomyces cerevisiae, UniProt P00044, C108S/K78A) (P00044 2-109 K78A/C108S): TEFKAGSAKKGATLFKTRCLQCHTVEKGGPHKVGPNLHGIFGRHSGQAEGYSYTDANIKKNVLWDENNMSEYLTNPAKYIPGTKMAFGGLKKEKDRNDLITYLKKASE
Sequence of yeast iso-1 cytochrome c WT* (pseudo-wild-type), ferric (Saccharomyces cerevisiae, UniProt P00044, C108S/K78A/K79A/K85G/M86K) (P00044 2-109 K78A/K79A/K85G/M86K/C108S): as the sequence (P00044 2-109 K78A/C108S) above, with K78A, K84G, M85K counted along it

Compound: c1c[nH]cn1 [imidazole]
- Kd [1]: 2780 µM
- Kd [2]: 2330 µM

Compound: iso-1 cytochrome c, M80K# (K73A/K79G/M80K in WT* background) (Saccharomyces cerevisiae; K72A;K73A;K79G;M80K;C102S)
- pKa (Lys80): 4.9 ± 0.2
